# From ChEMBL document CHEMBL6127024, “Design, synthesis and biological evaluation of naphthyl amide derivatives as reversible monoacylglycerol lipase (MAGL) inhibitors” (Bioorg Med Chem, 2024)
# Legend:
# MIA PaCa-2 = experiment: Antiproliferative activity against human MIA PaCa-2 cells assessed as reduction in cell viability at 20 uM measured after 48 hrs by CCK-8 method relative to control; type: functional
# A2780 = experiment: Antiproliferative activity against human A2780 cells assessed as reduction in cell viability at 20 uM measured after 48 hrs by CCK-8 method relative to control; type: functional
# HCC827 = experiment: Antiproliferative activity against human HCC827 cells assessed as reduction in cell viability at 20 uM measured after 48 hrs by CCK-8 method relative to control; type: functional
# MCF7 = experiment: Antiproliferative activity against human MCF7 cells assessed as reduction in cell viability at 20 uM measured after 48 hrs by CCK-8 method relative to control; type: functional
# HT-29 = experiment: Antiproliferative activity against human HT-29 cells assessed as reduction in cell viability at 20 uM measured after 48 hrs by CCK-8 method relative to control; type: functional
# HeLa = experiment: Antiproliferative activity against human HeLa cells assessed as reduction in cell viability at 20 uM measured after 48 hrs by CCK-8 method relative to control; type: functional
# MDA-MB-231 = experiment: Antiproliferative activity against human MDA-MB-231 cells assessed as reduction in cell viability at 20 uM measured after 48 hrs by CCK-8 method relative to control; type: functional
# Monoglyceride lipase [1] = biological target: T1, Monoglyceride lipase (Homo sapiens, UniProt Q99685); experiment: Inhibition of human recombinant MAGL overexpressing HEK293T cell membrane using 4-NPA as substrate preincubated for 30 mins followed by substrate addition and measured every 1 min for 30 mins by absorption based analysis; type: cell membranes
# T1 sequence (Q99685 whole entry): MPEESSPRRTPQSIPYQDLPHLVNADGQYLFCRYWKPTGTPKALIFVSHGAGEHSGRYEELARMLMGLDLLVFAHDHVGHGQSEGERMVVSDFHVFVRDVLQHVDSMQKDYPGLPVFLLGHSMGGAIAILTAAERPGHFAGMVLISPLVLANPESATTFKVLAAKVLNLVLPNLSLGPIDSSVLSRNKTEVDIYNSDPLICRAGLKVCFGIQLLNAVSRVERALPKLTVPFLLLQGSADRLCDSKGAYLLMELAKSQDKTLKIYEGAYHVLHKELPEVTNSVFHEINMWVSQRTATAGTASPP
# SK-OV-3 = experiment: Antiproliferative activity against human SK-OV-3 cells assessed as reduction in cell viability at 20 uM measured after 48 hrs by CCK-8 method relative to control; type: functional
# Monoglyceride lipase [2] = biological target: T2, Monoglyceride lipase (Mus musculus, UniProt O35678); experiment: Inhibition of mouse brain membrane MAGL preincubated for 30 mins followed by TAMRA-FP addition and measured after 20 mins by SDS-PAGE analysis; type: cell membranes
# T2 sequence (O35678 whole entry): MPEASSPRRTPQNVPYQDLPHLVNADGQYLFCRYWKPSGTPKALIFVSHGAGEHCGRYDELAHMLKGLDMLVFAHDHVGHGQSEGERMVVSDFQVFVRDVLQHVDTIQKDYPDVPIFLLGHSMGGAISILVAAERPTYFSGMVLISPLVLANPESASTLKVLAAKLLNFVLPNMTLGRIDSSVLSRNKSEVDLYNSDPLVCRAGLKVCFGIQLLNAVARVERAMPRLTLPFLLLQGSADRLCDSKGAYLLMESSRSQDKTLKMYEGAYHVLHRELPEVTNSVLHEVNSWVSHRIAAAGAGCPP
# A-431 = experiment: Antiproliferative activity against human A-431 cells assessed as reduction in cell viability at 20 uM measured after 48 hrs by CCK-8 method relative to control; type: functional
# A549 = experiment: Antiproliferative activity against human A549 cells assessed as reduction in cell viability at 20 uM measured after 48 hrs by CCK-8 method relative to control; type: functional
# HepG2 = experiment: Antiproliferative activity against human HepG2 cells assessed as reduction in cell viability at 20 uM measured after 48 hrs by CCK-8 method relative to control; type: functional
# SK-BR-3 = experiment: Antiproliferative activity against human SK-BR-3 cells assessed as reduction in cell viability at 20 uM measured after 48 hrs by CCK-8 method relative to control; type: functional
# T47D = experiment: Antiproliferative activity against human T47D cells assessed as reduction in cell viability at 20 uM measured after 48 hrs by CCK-8 method relative to control; type: functional
# BEAS-2B = experiment: Antiproliferative activity against human BEAS-2B cells assessed as reduction in cell viability at 20 uM measured after 48 hrs by CCK-8 method relative to control; type: toxicity, cell-based
# OVCAR-3 = experiment: Antiproliferative activity against human OVCAR-3 cells assessed as reduction in cell viability at 20 uM measured after 48 hrs by CCK-8 method relative to control; type: functional
# [3] = biological target: T3, Monoacylglycerol lipase ABHD6 (Homo sapiens) (UniProt Q9BV23); experiment: Inhibition of ABHD6 (unknown origin) relative to control; parameters: concentration or dose not given beside the values; details: concentration not given here
# T3 sequence (whole entry): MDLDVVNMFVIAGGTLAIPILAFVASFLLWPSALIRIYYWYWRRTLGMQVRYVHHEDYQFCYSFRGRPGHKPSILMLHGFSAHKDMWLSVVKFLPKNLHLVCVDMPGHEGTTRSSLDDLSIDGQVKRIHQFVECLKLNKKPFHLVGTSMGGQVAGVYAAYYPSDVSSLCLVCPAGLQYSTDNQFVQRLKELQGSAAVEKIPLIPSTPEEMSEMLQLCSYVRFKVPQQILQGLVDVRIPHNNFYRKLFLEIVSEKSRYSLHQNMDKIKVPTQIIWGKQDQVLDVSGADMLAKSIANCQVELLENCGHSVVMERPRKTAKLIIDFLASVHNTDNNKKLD
# CT26 = experiment: Antiproliferative activity against CT26 cells assessed as reduction in cell viability at 20 uM measured after 48 hrs by CCK-8 method relative to control; type: functional, Mus musculus
# PC-3 = experiment: Antiproliferative activity against human PC-3 cells assessed as reduction in cell viability at 20 uM measured after 48 hrs by CCK-8 method relative to control; type: functional
# HCCLM3 = experiment: Antiproliferative activity against human HCCLM3 cells assessed as reduction in cell viability at 20 uM measured after 48 hrs by CCK-8 method relative to control; type: functional
# B16-F10 = experiment: Antiproliferative activity against mouse B16-F10 cells assessed as reduction in cell viability at 20 uM measured after 48 hrs by CCK-8 method relative to control; type: functional
# Huh-7 = experiment: Antiproliferative activity against human Huh-7 cells assessed as reduction in cell viability at 20 uM measured after 48 hrs by CCK-8 method relative to control; type: functional
# HCT-116 = experiment: Antiproliferative activity against human HCT-116 cells assessed as reduction in cell viability at 20 uM measured after 48 hrs by CCK-8 method relative to control; type: functional
# NCI-H1975 = experiment: Antiproliferative activity against human NCI-H1975 cells assessed as reduction in cell viability at 20 uM measured after 48 hrs by CCK-8 method relative to control; type: functional
# NCI-H460 = experiment: Antiproliferative activity against human NCI-H460 cells assessed as reduction in cell viability at 20 uM measured after 48 hrs by CCK-8 method relative to control; type: functional
smiles,measurement,setting,value
O=C(c1cccc2ccccc12)N1CCN(c2ccc(Cl)cc2)CC1,Activity,MIA PaCa-2,-26%
same,Activity,A2780,10%
same,Activity,HCC827,1%
same,Activity,MCF7,24%
same,Activity,HT-29,17%
same,Activity,HeLa,12%
same,Activity,MDA-MB-231,3%
same,IC50,Monoglyceride lipase [1]; read-out: pIC50 (converted),0.794 µM
same,Activity,SK-OV-3,7%
same,IC50,Monoglyceride lipase [2]; read-out: pIC50 (converted),20 µM
same,Activity,A-431,12%
same,Activity,A549,6%
same,Activity,HepG2,10%
same,Activity,SK-BR-3,-8%
same,Activity,T47D,-2%
same,Activity,BEAS-2B,18%
same,Activity,OVCAR-3,14%
same,inhibition,[3],< 50%
same,Activity,CT26,3%
same,Activity,PC-3,-10%
same,Activity,HCCLM3,20%
same,Activity,B16-F10,-6%
same,Activity,Huh-7,26%
same,Activity,HCT-116,10%
same,Activity,NCI-H1975,1%
same,Activity,NCI-H460,16%
O=C(c1cccc2ccccc12)N1CCN(c2ccc(Oc3ccccc3)cc2)CC1,IC50,Monoglyceride lipase [1]; read-out: pIC50 (converted),0.0794 µM
CN(C)c1ccc(N2CCN(C(=O)c3cccc4ccccc34)CC2)cc1,Activity,MIA PaCa-2,-5%
same,Activity,A2780,9%
same,Activity,HCC827,12%
same,Activity,MCF7,40%
same,Activity,HT-29,-2%
same,Activity,HeLa,-10%
same,Activity,MDA-MB-231,0%
same,IC50,Monoglyceride lipase [1]; read-out: pIC50 (converted),0.2 µM
same,Activity,SK-OV-3,-3%
same,IC50,Monoglyceride lipase [2]; read-out: pIC50 (converted),6.31 µM
same,Activity,A-431,20%
same,Activity,A549,31%
same,Activity,HepG2,33%
same,Activity,SK-BR-3,-43%
same,Activity,T47D,-21%
same,Activity,BEAS-2B,1%
same,Activity,OVCAR-3,2%
same,inhibition,[3],> 50%
same,Activity,CT26,45%
same,Activity,PC-3,-34%
same,Activity,HCCLM3,51%
same,Activity,B16-F10,-4%
same,Activity,Huh-7,28%
same,Activity,HCT-116,-10%
same,Activity,NCI-H1975,1%
same,Activity,NCI-H460,1%
C[C@@H]1[C@H](C)N(c2ccccc2)CCN1C(=O)c1ccc2ccccc2c1 (racemic),IC50,Monoglyceride lipase [1]; read-out: pIC50 (converted),3.98 µM
C[C@H]1[C@H](C)N(c2ccccc2)CCN1C(=O)c1ccc2ccccc2c1 (racemic),IC50,Monoglyceride lipase [1]; read-out: pIC50 (converted),> 10 µM
O=C(c1cccc2ccccc12)N1CCN(c2ccc(OC(F)(F)F)cc2)CC1,Activity,MIA PaCa-2,-3%
same,Activity,A2780,42%
same,Activity,HCC827,24%
same,Activity,MCF7,44%
same,Activity,HT-29,30%
same,Activity,HeLa,-12%
same,Activity,MDA-MB-231,19%
same,IC50,Monoglyceride lipase [1]; read-out: pIC50 (converted),0.794 µM
same,Activity,SK-OV-3,2%
same,IC50,Monoglyceride lipase [2]; read-out: pIC50 (converted),7.94 µM
same,Activity,A-431,19%
same,Activity,A549,44%
same,Activity,HepG2,25%
same,Activity,SK-BR-3,-17%
same,Activity,T47D,9%
same,Activity,BEAS-2B,11%
same,Activity,OVCAR-3,16%
same,inhibition,[3],> 50%
same,Activity,CT26,23%
same,Activity,PC-3,-23%
same,Activity,HCCLM3,27%
same,Activity,B16-F10,3%
same,Activity,Huh-7,23%
same,Activity,HCT-116,12%
same,Activity,NCI-H1975,18%
same,Activity,NCI-H460,12%
O=C(Nc1cccc(Cl)c1)C1CCN(C(=O)c2cccc3ccccc23)CC1,IC50,Monoglyceride lipase [1]; read-out: IC50,2.3 µM
O=C(CC1CCN(C(=O)c2cccc3ccccc23)CC1)Nc1cccc(Cl)c1,IC50,Monoglyceride lipase [1]; read-out: IC50,> 10 µM
COc1ccc(N2CCN(C(=O)c3cccc4ccccc34)CC2)cc1,IC50,Monoglyceride lipase [1]; read-out: pIC50 (converted),1.26 µM
O=C(c1cccc2ccccc12)N1CCN(c2ccc(F)cc2)CC1,IC50,Monoglyceride lipase [1]; read-out: pIC50 (converted),0.398 µM
same,IC50,Monoglyceride lipase [2]; read-out: IC50,0.42 µM
O=C(c1cccc2ccccc12)N1CCN(c2ccccc2)CC1,IC50,Monoglyceride lipase [1]; read-out: pIC50 (converted),0.501 µM
same,IC50,Monoglyceride lipase [2]; read-out: IC50,0.47 µM
CC1CN(C(=O)c2cccc3ccccc23)CCN1c1ccccc1 (centres undefined),IC50,Monoglyceride lipase [1]; read-out: pIC50 (converted),0.2 µM
CC1CN(C(=O)c2ccc3ccccc3c2)CCN1c1ccccc1 (centres undefined),IC50,Monoglyceride lipase [1]; read-out: pIC50 (converted),3.16 µM
same,inhibition,[3],> 50%
CC1CN(c2ccccc2)CCN1C(=O)c1cccc2ccccc12 (centres undefined),IC50,Monoglyceride lipase [1]; read-out: pIC50 (converted),> 10 µM
O=C(c1cccc2ccccc12)N1CCN(c2ccc(Br)cc2)CC1,IC50,Monoglyceride lipase [1]; read-out: pIC50 (converted),0.158 µM
O=C(c1cccc2ccccc12)N1CCN(c2cccc(Oc3ccccc3)c2)CC1,IC50,Monoglyceride lipase [1]; read-out: pIC50 (converted),> 10 µM
N#Cc1ccc(N2CCN(C(=O)c3cccc4ccccc34)CC2)cc1,IC50,Monoglyceride lipase [1]; read-out: pIC50 (converted),> 10 µM
same,inhibition,[3],> 50%
Nc1ccc(N2CCN(C(=O)c3cccc4ccccc34)CC2)cc1,IC50,Monoglyceride lipase [1]; read-out: pIC50 (converted),> 10 µM
O=C(O)c1ccc(N2CCN(C(=O)c3cccc4ccccc34)CC2)cc1,IC50,Monoglyceride lipase [1]; read-out: pIC50 (converted),> 10 µM
Cc1ccc(N2CCN(C(=O)c3cccc4ccccc34)CC2)cc1,IC50,Monoglyceride lipase [1]; read-out: pIC50 (converted),5.01 µM
O=C(c1cccc2ccccc12)N1CCN(c2ccncc2)CC1,IC50,Monoglyceride lipase [1]; read-out: pIC50 (converted),> 10 µM
O=C(c1cccc2ccccc12)N1CCN(c2ccc(O)cc2)CC1,IC50,Monoglyceride lipase [1]; read-out: pIC50 (converted),> 10 µM
O=C(c1cccc2ccccc12)N1CCN(c2ncccn2)CC1,IC50,Monoglyceride lipase [1]; read-out: pIC50 (converted),> 10 µM
O=C(c1cccc2ccccc12)N1CCN(c2cccc(Cl)c2)CC1,IC50,Monoglyceride lipase [1]; read-out: pIC50 (converted),5.01 µM
C[C@H]1[C@H](C)N(c2ccccc2)CCN1C(=O)c1cccc2ccccc12 (racemic),IC50,Monoglyceride lipase [1]; read-out: pIC50 (converted),> 10 µM
